We go through 22 compounds from ChEMBL document CHEMBL2016567, “Novel acridinedione derivatives: design, synthesis, SIRT1 enzyme and tumor cell growth inhibition studies” (Bioorg Med Chem Lett, 2012).

pIC50: −log10 of the molar value. The source made the active and inactive calls. The calls are words filed in the database; no cut-off is given here.

One data set concerns HEK293. Put plainly: Cytotoxicity against human HEK293 cells at 10 uM. As to conditions: hek293, 10 µM. It is filed as cell-based.
The test system of data set [1] is MDA-MB-231. Put plainly: Growth inhibition of human MDA-MB-231 cells. It is filed as functional, cell-based.
Data set [2] addresses T1, NAD-dependent protein deacetylase sirtuin-1 (Homo sapiens) (UniProt Q96EB6).
T1 sequence (whole entry): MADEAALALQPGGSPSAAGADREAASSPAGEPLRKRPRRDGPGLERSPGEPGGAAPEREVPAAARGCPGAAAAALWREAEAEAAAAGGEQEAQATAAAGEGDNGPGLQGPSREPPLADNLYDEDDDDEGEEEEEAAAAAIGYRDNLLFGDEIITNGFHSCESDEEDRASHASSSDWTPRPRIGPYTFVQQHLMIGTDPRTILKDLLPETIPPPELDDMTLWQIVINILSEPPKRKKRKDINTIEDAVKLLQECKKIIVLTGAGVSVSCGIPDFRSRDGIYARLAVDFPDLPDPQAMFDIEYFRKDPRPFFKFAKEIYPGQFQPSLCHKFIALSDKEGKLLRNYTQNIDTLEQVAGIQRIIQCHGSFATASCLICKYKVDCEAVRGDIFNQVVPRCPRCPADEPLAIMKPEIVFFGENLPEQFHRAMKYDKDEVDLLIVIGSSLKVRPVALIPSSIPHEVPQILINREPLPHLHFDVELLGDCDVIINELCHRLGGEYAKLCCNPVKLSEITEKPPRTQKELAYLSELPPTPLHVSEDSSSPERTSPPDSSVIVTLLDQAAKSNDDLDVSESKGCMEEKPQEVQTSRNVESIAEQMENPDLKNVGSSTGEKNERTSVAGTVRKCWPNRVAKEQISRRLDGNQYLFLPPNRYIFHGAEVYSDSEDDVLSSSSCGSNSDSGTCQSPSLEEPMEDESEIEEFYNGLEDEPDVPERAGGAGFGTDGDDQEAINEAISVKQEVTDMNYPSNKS
As to the kind of experiment: Inhibition of human SIRT1 using Fluor-de-Lys as substrate at 50 uM.

The target in data set [3] is T2, NAD-dependent protein deacetylase sirtuin-1 (Homo sapiens, UniProt Q96EB6).
T2 sequence (Q96EB6 whole entry): T1 sequence (whole entry)
Put plainly: Inhibition of human SIRT1 using Fluor-de-Lys as substrate.

In another data set the test system is K562. Put plainly: Growth inhibition of human K562 cells. It is filed as functional, cell-based.
For data set [4], the target named is T1, NAD-dependent protein deacetylase sirtuin-1 (Homo sapiens). As to the kind of experiment: Inhibition of SIRT1 in human MDA-MB-231 cells assessed as increase in p53 acetylation at lysine 382 residue after 24 hrs by Western blot analysis. It is filed as cell-based.
The test system of data set [5] is MDA-MB-231. As to the kind of experiment: Decrease in SIRT1 protein level in human MDA-MB-231 cells after 24 hrs by Western blot analysis. It is filed as functional, cell-based. On the technique in general: In western blotting, separated proteins are transferred to a membrane and probed.

The term pIC50 denotes the negative decadic logarithm of the IC50, by convention in mol/L. High values mean a small IC50, low ones a large IC50. For orientation: inhibition means the relative decrease from the control value, in per cent.

For the compound `COc1ccc(C(=O)NN2C3=C(C(=O)CC(C)(C)C3)C(c3ccc(OCc4ccccc4)cc3)C3=C2CC(C)(C)CC3=O)c(OC)n1`, in the data set with HEK293, the Activity entry is “Non-toxic”. In addition, the pIC50 with MDA-MB-231 [1] was 6.51; in data set [3], 4.60. In data set [2], the inhibition is 55.1%.

For the compound `CC1(C)CC(=O)C2=C(C1)N(NC(=O)c1ccncc1)C1=C(C(=O)CC(C)(C)C1)C2c1ccccc1OCc1ccccc1`, the Activity result in the data set with HEK293 is “Non-toxic”. Also, the pIC50 with MDA-MB-231 [1] is 5.30; in the data set with K562, 5.00. Further, in data set [2], the inhibition turned out to be 72.6%.

With `CC1(C)CC(=O)C2=C(C1)N(NC(=O)c1ccncc1)C1=C(C(=O)CC(C)(C)C1)C2c1ccc(OCc2ccccc2)cc1`, in the data set with HEK293, the Activity result is listed as “Non-toxic”. The pIC50 with MDA-MB-231 [1] and in the data set with K562 was under 4.30 throughout. In addition, the inhibition result in data set [2] is “inactive”.

`CC1(C)CC(=O)C2=C(C1)N(Nc1ccccc1)C1=C(C(=O)CC(C)(C)C1)C2c1cccc(OCc2ccccc2)c1`: in the data set on HEK293, the Activity entry is reported as “Non-toxic”. Further, the pIC50 in the data set with MDA-MB-231 [1] was 6.00; in data set [3] it was 4.40. The inhibition in data set [2] turned out to be 51.4%.

With `Cc1ccc(C(=O)Nc2ccc(S(=O)(=O)O)c3cc(S(=O)(=O)O)cc(S(=O)(=O)O)c23)cc1NC(=O)c1cccc(NC(=O)Nc2cccc(C(=O)Nc3cc(C(=O)Nc4ccc(S(=O)(=O)O)c5cc(S(=O)(=O)O)cc(S(=O)(=O)O)c45)ccc3C)c2)c1` [SURAMIN], the Activity result in the data set on HEK293 is “Non-toxic”. The pIC50 in the data set with MDA-MB-231 [1] is 4.51; in the data set on K562, 4.73. In data set [2], the inhibition came to 53.9%.

In turn, `COc1ccc(C(=O)NN2C3=C(C(=O)CC(C)(C)C3)C(c3cccc(OCc4ccccc4)c3)C3=C2CC(C)(C)CC3=O)c(OC)n1` gave an inhibition in data set [2] of 35.6%.

For `COc1cccc2c1C(=O)c1c(O)c3c(c(O)c1C2=O)C[C@@](O)(C(=O)CO)C[C@@H]3O[C@H]1C[C@H](N)[C@H](O)[C@H](C)O1` [DOXORUBICIN], in the data set on HEK293, the Activity result was “Non-toxic”. In the data set on MDA-MB-231 [1], this compound showed a pIC50 of 5.00.

In turn, `CC1(C)CC(=O)C2=C(C1)N(NC(=O)c1ccc([N+](=O)[O-])cc1)C1=C(C(=O)CC(C)(C)C1)C2c1cccc(OCc2ccccc2)c1` registered an inhibition in data set [2] of 33.6%.

In the case of `CC1(C)CC(=O)C2=C(C1)N(NC(=O)c1ccncc1)C1=C(C(=O)CC(C)(C)C1)C2c1cccc(OCc2ccccc2)c1`, the Activity result in the data set on HEK293 was “Non-toxic”. Further, the pIC50 in the data set with MDA-MB-231 [1] is under 4.30; with K562 it was 5.00. The inhibition in data set [2] is 53.7%.

On to `CC1(C)CC(=O)C2=C(C1)N(Nc1ccc([N+](=O)[O-])cc1[N+](=O)[O-])C1=C(C(=O)CC(C)(C)C1)C2c1ccc(OCc2ccccc2)cc1`, for which the Activity result in the data set with HEK293 is “Non-toxic”. Also, the pIC50 in the data set with MDA-MB-231 [1] is 5.18; in data set [3] it was 4.36. Further, the inhibition in data set [2] is 54.8%.

Regarding `CC1(C)CC(=O)C2=C(C1)N(Nc1ccccc1)C1=C(C(=O)CC(C)(C)C1)C2c1ccc(OCc2ccccc2)cc1`, the Activity entry with HEK293 is listed as “Non-toxic”. Moreover, the values for the pIC50 (with MDA-MB-231 [1]; in data set [3]) were 5.86 and 4.37, respectively. The compound also displayed an inhibition in data set [2] of 55.2%.

Consider `CC1(C)CC(=O)C2=C(C1)N(NC(=O)c1ccccc1)C1=C(C(=O)CC(C)(C)C1)C2c1ccc(OCc2ccccc2)cc1`, for which the Activity result in the data set with HEK293 is on record as “Non-toxic”. The pIC50 is 5.50 in the data set with MDA-MB-231 [1] and 4.34 in data set [3]. In addition, in data set [2], the inhibition is 52%.

In turn, `CC1(C)CC(=O)C2=C(C1)N(Nc1ccc([N+](=O)[O-])cc1[N+](=O)[O-])C1=C(C(=O)CC(C)(C)C1)C2c1cccc(OCc2ccccc2)c1` came in with an inhibition in data set [2] of 33.2%.

The compound `CC1(C)CC(=O)C2=C(C1)N(NC(=O)c1ccccc1)C1=C(C(=O)CC(C)(C)C1)C2c1ccccc1OCc1ccccc1` displayed an inhibition in data set [2] of 39.7%.

Consider `CC1(C)CC(=O)C2=C(C1)N(NC(=O)c1ccc(Cl)cc1Cl)C1=C(C(=O)CC(C)(C)C1)C2c1cccc(OCc2ccccc2)c1`, for which the inhibition in data set [2] turned out to be 4.7%.

As to `CC1(C)CC(=O)C2=C(C1)N(NC(=O)c1ccc(Cl)cc1Cl)C1=C(C(=O)CC(C)(C)C1)C2c1ccc(OCc2ccccc2)cc1`, the inhibition in data set [2] is 3.6%.

For the compound `CC1(C)CC(=O)C2=C(C1)N(NC(=O)c1ccccc1)C1=C(C(=O)CC(C)(C)C1)C2c1cccc(OCc2ccccc2)c1`, the inhibition in data set [2] was determined as 21.5%.

Take `CC1(C)CC(=O)C2=C(C1)N(Nc1ccccc1)C1=C(C(=O)CC(C)(C)C1)C2c1ccccc1OCc1ccccc1`: the Activity result in the data set with HEK293 is given as “Non-toxic”. For the same compound, the pIC50 in the data set with MDA-MB-231 [1] was 4.30; in data set [3], 4.96. Moreover, in data set [2], the inhibition came out at 82.1%.

Consider `CC1(C)CC(=O)C2=C(C1)N(NC(=O)c1ccc([N+](=O)[O-])cc1)C1=C(C(=O)CC(C)(C)C1)C2c1ccc(OCc2ccccc2)cc1`, for which the inhibition in data set [2] is 35.6%.

Regarding `COc1ccc(C(=O)NN2C3=C(C(=O)CC(C)(C)C3)C(c3ccccc3OCc3ccccc3)C3=C2CC(C)(C)CC3=O)c(OC)n1`, the inhibition in data set [2] was determined as 35.2%.

In data set [2], `CC1(C)CC(=O)C2=C(C1)N(NC(=O)c1ccc([N+](=O)[O-])cc1)C1=C(C(=O)CC(C)(C)C1)C2c1ccccc1OCc1ccccc1` had an inhibition of 39%.

Consider `CC1(C)CC(=O)C2=C(C1)N(Nc1ccc([N+](=O)[O-])cc1[N+](=O)[O-])C1=C(C(=O)CC(C)(C)C1)C2c1ccccc1OCc1ccccc1`, for which the Activity result in the data set with HEK293 is “Non-toxic”; in the data set with MDA-MB-231 [5] it was “Dose-dependent effect”. Further, the pIC50 with MDA-MB-231 [1] was 6.60; in data set [3], 4.99. The inhibition was 83.2% in data set [2] and “Dose-dependent effect” in data set [4].
